Source: patent US6756063B2, “Methods and compositions for the treatment of human and animal cancers” (Zoltan Laboratories, LLC, priority 2001, dated 2004)

Experiments:
[1] = system: MDA-MB-231, human mammary gland (epithelial) adenocarcinoma, estrogen receptor negative; experiment: Cell killing in MDA-MB-231; assay type: cell-based; settings: for effectiveness of compositions comprising another dithiocarbonyl compared with PDC: same conditions as the PDC compositions
Description: (§1) To determine the effects of the present compositions, cells were grown in the indicated medium in either 12-well plates (to assess morphological changes and measure DNA synthesis); 6-well plates (for determination of apoptosis/necrosis); or 96-well plates (for determination of cellular proliferation by the MTT assay). All media contained 10% fetal bovine serum. In each experiment, the medium was replaced with fresh medium at 2 h. prior to treatment. Treatments were performed with sterile solutions of the compositions (made up either in the respective medium or water) for 1 min.-72 h. In some cases, treatments were done for 1 min., followed by incubation of washed cells for various time periods.
(§2) Cells were cultured in Leibovitz's L-15 cell culture medium (Gibco) and 10% fetal bovine serum; the medium was changed 6 h. prior to treatment. […] For DNA synthesis experiments, cells were incubated with [^3H]-thymidine (1 μCi/ml) between 40-50 mins. of treatment; for cell proliferation experiments, cells were trypsinized after treatment, re-plated, and viable cells counted 1 week later.

[2] = system: ZR-75-1, human mammary gland (epithelial) ductal carcinoma, ascites, estrogen receptor positive; experiment: Cell killing in ZR-75-1; assay type: cell-based
Description: as §1
ZR-75-1, human mammary gland (epithelial) ductal carcinoma, ascites, estrogen receptor positive. Cells were cultured in modified RPMI 1640 medium with 2 mM L-glutamine, 10 mM Hepes, 1 mM sodium pyruvate, 4.5 g/L glucose, 1.5 g/L sodium bicarbonate, 0.2 I.U. bovine insulin/ml, and 10% fetal bovine serum; the medium was changed 6 h. prior to treatment. […] For DNA synthesis experiments, cells were incubated with [^3H]-thymidine (1 μCi/ml) between 120-130 mins. of treatment; for cell proliferation experiments, cells were trypsinized after treatment, re-plated, and viable cells counted 1 week later.

[3] = system: T-47D, human mammary gland (epithelial) ductal carcinoma, estrogen receptor positive; experiment: Cell killing in T-47D; assay type: cell-based
Description: as §1
Cells were cultured in modified RPMI 1640 cell culture medium (see Gibco Catalogue), with 2 mM L-glutamine, 10 mM Hepes, 1 mM sodium pyruvate, 4.5 g/L glucose, 1.5 g/L sodium bicarbonate, 0.2 I.U. bovine insulin/ml, and 10% fetal bovine serum; the medium was changed 6 h. prior to treatment. […] For DNA synthesis experiments, cells were incubated with [^3H]-thymidine (1 μCi/ml) between 120-130 mins. of treatment; for cell proliferation experiments, cells were trypsinized after treatment, replated, and viable cells counted 1 week later.

BDF1 adult female mice = experiment: In vivo acute toxicological investigation, intraperitoneal; settings: alone, 0.5-2 mM in physiological saline, followed 21 days
Description: Specified pathogen free (SPF) hygienic category first generation hybrid BDF1 (C57B1 female×DBA/2 male) adult female mice weighing 22-23 g were used. The animals were kept in macrolon cages at 22-24 C (45-55% humidity), with a lighting regimen of 12/12 h light/dark.
The animals were followed for 21 days and evaluated based on survival and body weight. Seven animals were evaluated for each treatment.

normal cells = experiment: Proliferation of normal cells; assay type: cell-based
[4] = system: T-47D, 2R-75-1, A431, MDA-MB-231, AN3Ca, CaOV3; experiment: Proliferation of cancer cell lines; assay type: cell-based
[5] = system: MCF-7, human breast carcinoma cells, estrogen receptor positive; experiment: Cell killing in MCF-7; assay type: cell-based; settings: in the above experiments
Description: as §1
Cells were cultured in Dulbecco's modified Eagle's medium containing 2 mM L-glutamine and 10% fetal calf serum; the medium was changed 2 h prior to treatments. […] For DNA synthesis experiments, cells were incubated with [^3H]-thymidine ([…]) between 120-130 min of treatment; for cell proliferation experiments, cells were trypsinized after treatment, re-plated, and viable cells counted 1 week later.

[6] = system: MDA-MB-468, human mammary gland (epithelial) adenocarcinoma, estrogen receptor negative; experiment: Cell killing in MDA-MB-468; assay type: cell-based; settings: in the above experiments
Description: as §1
as §2, with “L-15” for “L-15 cell culture”, “medium” for “medium (Gibco)”, “120-130” for “40-50”

[7] = components at 50 μM PDC, 120 μM Zn, 100 μM EA, 3 mM DMETN, 2 h

C=C(CC)C(=O)c1ccc(OCC(=O)O)c(Cl)c1Cl [EA, ethacrynic acid]
cells killed ([1]; 60 μM EA alone, after 3 h): about 100%
cells killed ([1]; components at 25 μM PDC, 60 μM Zn, 60 μM EA, 3 mM DMETN, 40 min): about 70%
cells killed [2, 7]: about 100%
cells killed [3, 7]: about 100%
acute toxicity (survival and body weight) (BDF1 adult female mice): not toxic

CN(C)CCO [DMETN, dimethylethanolamine]
proliferation of normal cells (normal cells): generally increasing proliferation
proliferation of cancer cell lines [4]: inhibits proliferation

S=C(S)OC1CC2CC1C1CCCC21 (stereo not shown) [Composition D609]
effectiveness of compositions comprising another dithiocarbonyl compared with PDC [1]: as effective as compositions comprising PDC
effectiveness of compositions comprising another dithiocarbonyl compared with PDC ([2]; in the above experiments): as effective as those comprising PDC
effectiveness of compositions comprising another dithiocarbonyl compared with PDC ([3]; in the above experiments): as effective as those comprising PDC
effectiveness of compositions comprising another dithiocarbonyl compared with PDC [5]: as effective as those comprising PDC
effectiveness of compositions comprising another dithiocarbonyl compared with PDC [6]: as effective as those comprising PDC

CCN(CC)C(=S)SSC(=S)N(CC)CC [disulfuram, tetraethylthiuram disulfide]
effectiveness of compositions comprising another dithiocarbonyl compared with PDC [1]: as effective as compositions comprising PDC
